Measurements taken from ChEMBL document CHEMBL1201862, “PubChem BioAssay data set” (2004).
Activity calls are given as the source filed them.

Legend:
[1] = molecular target: T1, Small ubiquitin-related modifier 1 (Homo sapiens, UniProt P63165); assay: inhibitors of SUMO1 peptide binding, dose response, biochemical, fluorescence polarization, uHTS hits (AID 624382); type: functional; conditions: read-out: IC50_Mean
[2] = molecular target: T1, Small ubiquitin-related modifier 1; assay: inhibitors of SUMO1 partner interactions, dose response, biochemical, FRET (AID 624383); type: functional; conditions: read-out: IC50_Mean
[3] = molecular target: SWI/SNF-related matrix-associated actin-dependent regulator of chromatin subfamily A member 2 (Homo sapiens, UniProt P51531); assay: Luminescence-based cell-based high throughput dose response assay to identify activators of the function of SWI/SNF related, matrix associated, actin dependent regulator of chromatin, subfamily a, member 2 (SMARCA2, BRM).; type: functional
Chain of SWI/SNF-related matrix-associated actin-dependent regulator of chromatin subfamily A member 2 (P51531 whole entry): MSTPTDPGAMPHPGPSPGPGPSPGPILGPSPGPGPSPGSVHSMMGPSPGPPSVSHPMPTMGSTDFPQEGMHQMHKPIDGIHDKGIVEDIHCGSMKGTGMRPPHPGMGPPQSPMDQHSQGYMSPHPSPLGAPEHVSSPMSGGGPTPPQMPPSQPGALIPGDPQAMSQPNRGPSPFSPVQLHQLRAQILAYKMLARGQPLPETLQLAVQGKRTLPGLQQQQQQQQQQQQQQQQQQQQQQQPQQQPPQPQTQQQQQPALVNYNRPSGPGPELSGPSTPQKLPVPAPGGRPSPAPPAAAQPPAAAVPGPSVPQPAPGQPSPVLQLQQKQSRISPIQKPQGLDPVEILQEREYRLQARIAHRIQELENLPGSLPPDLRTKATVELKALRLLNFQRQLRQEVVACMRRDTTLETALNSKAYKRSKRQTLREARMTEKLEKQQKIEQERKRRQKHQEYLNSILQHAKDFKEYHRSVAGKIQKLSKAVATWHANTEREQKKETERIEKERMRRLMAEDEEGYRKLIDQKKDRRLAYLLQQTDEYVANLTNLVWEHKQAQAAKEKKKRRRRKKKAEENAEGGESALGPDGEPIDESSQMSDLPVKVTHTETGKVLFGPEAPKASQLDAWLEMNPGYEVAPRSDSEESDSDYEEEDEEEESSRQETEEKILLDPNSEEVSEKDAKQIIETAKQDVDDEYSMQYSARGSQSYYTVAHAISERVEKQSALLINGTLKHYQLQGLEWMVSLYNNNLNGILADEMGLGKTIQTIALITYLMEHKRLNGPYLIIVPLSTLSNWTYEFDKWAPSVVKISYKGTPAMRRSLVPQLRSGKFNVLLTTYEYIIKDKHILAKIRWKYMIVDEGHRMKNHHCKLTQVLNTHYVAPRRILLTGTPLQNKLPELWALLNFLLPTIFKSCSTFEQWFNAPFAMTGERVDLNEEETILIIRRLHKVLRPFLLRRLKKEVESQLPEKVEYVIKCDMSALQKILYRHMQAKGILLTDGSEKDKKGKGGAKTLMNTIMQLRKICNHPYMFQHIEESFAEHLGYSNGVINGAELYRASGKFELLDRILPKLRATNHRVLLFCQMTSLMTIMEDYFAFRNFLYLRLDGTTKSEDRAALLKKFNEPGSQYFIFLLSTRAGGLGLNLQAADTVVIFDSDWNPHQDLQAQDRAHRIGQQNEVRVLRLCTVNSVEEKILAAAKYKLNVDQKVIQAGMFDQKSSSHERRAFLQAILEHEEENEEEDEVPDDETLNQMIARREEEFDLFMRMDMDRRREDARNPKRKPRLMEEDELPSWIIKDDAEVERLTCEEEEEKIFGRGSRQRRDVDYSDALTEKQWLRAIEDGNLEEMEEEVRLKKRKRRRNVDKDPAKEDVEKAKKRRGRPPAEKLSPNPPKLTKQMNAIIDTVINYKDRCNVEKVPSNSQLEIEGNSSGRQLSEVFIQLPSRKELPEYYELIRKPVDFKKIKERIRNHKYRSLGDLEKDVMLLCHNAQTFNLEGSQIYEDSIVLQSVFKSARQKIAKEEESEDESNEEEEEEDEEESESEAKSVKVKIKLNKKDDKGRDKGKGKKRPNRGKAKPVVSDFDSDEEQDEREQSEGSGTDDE

[4] = Counterscreen for activators of the function of SWI/SNF related, matrix associated, actin dependent regulator of chromatin, subfamily a, member 2 (SMARCA2, BRM): Luminescence-based cell-based high throughput dose response assay to identify non-selective compounds using the VP16 reporter assay.; type: functional
Caspase-3 = molecular target: T2, Caspase-3 (Homo sapiens, UniProt P42574); assay: Dose-response confirmation of uHTS inhibitor hits of Sentrin-Specific Protease 8 in a Caspase-3 Fluorescence assay.; type: functional
T2 sequence (P42574 whole entry): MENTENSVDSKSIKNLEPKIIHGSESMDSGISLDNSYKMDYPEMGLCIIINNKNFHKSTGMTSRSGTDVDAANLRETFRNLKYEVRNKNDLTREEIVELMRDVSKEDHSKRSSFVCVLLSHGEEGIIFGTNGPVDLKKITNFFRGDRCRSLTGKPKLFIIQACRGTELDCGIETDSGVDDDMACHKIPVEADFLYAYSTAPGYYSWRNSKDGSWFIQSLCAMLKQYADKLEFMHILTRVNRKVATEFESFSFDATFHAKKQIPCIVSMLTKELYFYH

[5] = molecular target: T3, Sentrin-specific protease 8 (Homo sapiens, UniProt Q96LD8); type: functional
T3 sequence (Q96LD8 whole entry): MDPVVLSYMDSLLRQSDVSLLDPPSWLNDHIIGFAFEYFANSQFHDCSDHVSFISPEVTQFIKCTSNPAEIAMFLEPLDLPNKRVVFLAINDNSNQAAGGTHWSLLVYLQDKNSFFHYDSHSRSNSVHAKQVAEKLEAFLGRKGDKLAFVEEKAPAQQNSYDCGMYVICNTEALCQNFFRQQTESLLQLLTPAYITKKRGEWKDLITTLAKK

[6] = molecular target: T3, Sentrin-specific protease 8; type: functional; remark: listed apart in the source
HEK293 = assay: HEK293T cell cytotoxicity, dose response, cytotoxicity control, ATP luminescence, cherry-pick samples (AID 687005); type: functional, cell-based; conditions: Homo sapiens;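 note: cells exposed to compound for 48 hours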
HeLa = assay: HeLa cell cytotoxicity, dose response, cytotoxicity control, ATP luminescence, cherry-pick samples (AID 687004); type: functional, cell-based
[7] = HEK293 Cytotoxicity Assay Measured in Cell-Based System Using Plate Reader - 7071-01_Inhibitor_Dose_CherryPick_Activity_Set2.; type: functional
Cryptococcus neoformans [8] = assay: PubChem AID 686997; type: functional, organism-based
Cryptococcus neoformans [9] = assay: Cryptococcus growth inhibition by alamar blue – cell lysis, cherry-picks, replicate tests, mechanism study for C. neoformans antifungal project, dose response (AID 686999); type: functional, organism-based
[10] = HEK293 cell viability, dose response, counter-screen for EBV LMP1 inhibitor project, dry powder, set 2 (AID 624374); type: functional
Paired box protein Pax-8 = Paired box protein Pax-8 (Homo sapiens, UniProt Q06710); assay: inhibitors of PAX8-driven TPO luciferase reporter, dose response, RMG-I cells, cherry-pick (AID 687027); type: functional, cell-based;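 note: luciferase reporter driven by Pax8 target thyroperoxidase promoter measured by SteadyGlo luminescence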
Chain of Paired box protein Pax-8 (Q06710 whole entry): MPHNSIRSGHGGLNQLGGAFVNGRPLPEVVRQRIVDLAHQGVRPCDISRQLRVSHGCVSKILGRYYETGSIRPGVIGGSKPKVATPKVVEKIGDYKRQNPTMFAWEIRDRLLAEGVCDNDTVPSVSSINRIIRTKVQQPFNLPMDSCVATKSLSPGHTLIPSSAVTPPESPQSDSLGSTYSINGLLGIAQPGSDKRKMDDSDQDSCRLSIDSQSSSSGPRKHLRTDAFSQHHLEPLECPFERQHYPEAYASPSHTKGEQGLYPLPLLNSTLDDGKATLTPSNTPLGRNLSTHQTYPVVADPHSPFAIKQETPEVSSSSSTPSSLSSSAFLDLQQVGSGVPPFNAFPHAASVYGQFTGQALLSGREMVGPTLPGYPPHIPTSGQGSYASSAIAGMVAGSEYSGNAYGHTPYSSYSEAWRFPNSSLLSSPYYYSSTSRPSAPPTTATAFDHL

T1 sequence (P63165 whole entry): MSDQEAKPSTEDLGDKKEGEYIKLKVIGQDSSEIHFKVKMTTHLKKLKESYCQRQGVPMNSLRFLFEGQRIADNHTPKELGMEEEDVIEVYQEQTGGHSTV

For CCn1c(SCC(=O)NC(=O)NCc2ccco2)nc2sc(C)c(C)c2c1=O, the IC50 [1] was > 66.6 µM (inactive) and the IC50 [2] was 21.9 µM (inactive).
For COc1cccc(-c2cnc3c(NC=O)cc(-c4ccc(N5CCN(C)CC5)cc4)cn23)c1, the EC50 [3] was > 10.1 µM (inactive) and the EC50 [4] was > 91.2 µM (inactive).
For O=C(NC1CCCCC1)C(c1ccnc2ccccc12)N1CCc2ccccc2C1 (centres undefined), the IC50 (Caspase-3) was 9.26 µM (active), the IC50 [5] was 17.5 µM (active) and the IC50 [6] was 2.31 µM (active).
With COC(=O)C1=C(C)N(CC(C)C)C(=S)NC1c1ccc(-c2ccccc2)cc1 (centres undefined) the AC50 (HEK293) was 20.4 µM (active), the AC50 (HeLa) was > 52 µM (inactive) and the AC50 (HeLa; Homo sapiens) was 42 µM (active). For the same compound, the AC50 [7] was 20.4 µM (active), the AC50 (Cryptococcus neoformans [8]) was 23.6 µM (active) and the AC50 (Cryptococcus neoformans [8]; Cryptococcus neoformans) was 15.6 µM (active). The AC50 (Cryptococcus neoformans [9]) was 51.6 µM (active).
O=C(Cc1ccccn1)NCC[C@@H]1CC[C@H](NC(=O)Nc2ccc(Cl)cc2)[C@H](CO)O1 gave an AbsAC35 [10] of 154.48 µM.
In the case of CC[C@H](C)[C@@H]1NC(=O)CNC(=O)c2csc(n2)[C@H](C(C)(C)O)OC(=O)C(C)(C)[C@H](CCCC(C)(Cl)Cl)OC(=O)c2csc1n2 [LYNGBYABELLIN A], the AC50 (HeLa; Homo sapiens) is reported as < 0.195 µM (active), the AC50 (Cryptococcus neoformans [8]; Cryptococcus neoformans) is reported as 2.72 µM (active) and the AC50 (Paired box protein Pax-8) is reported as < 0.26 µM (active). For the same compound, the AC50 (Cryptococcus neoformans [9]) was 2.1 µM (active).
